Laboratory results from patent publication US9717709B2, “Substituted pyrazoles as heat shock transcription factor activators” (Duke University, priority 2010, dated 2017).

What was measured:
Hsp90 = experiment: competitive binding assay in vitro using biotinylated geldanamycin (GD-B)
Excerpt: Many pharmacological inhibitors of Hsp90 such as geldanamycin and 17-AAG target the amino-terminal ATP binding pocket of Hsp90, thereby inhibiting its chaperone function. To test whether HSF1A has affinity for the Hsp90 ATP-binding pocket, we performed competitive binding assays in vitro using a biotinylated geldanamycin (GD-B) molecule. […] Because other small molecule inhibitors of Hsp90, including celastrol, novobiocin, and EGCG, are thought to bind Hsp90 at the carboxy-terminus Amolins, M and Blagg, B, Mini Rev Med Chem. 2009 9, 140-152, we ascertained whether HSF1A could bind to Hsp90 at a region outside of the ATPbinding pocket. To assay for HSF1A binding to Hsp90, we generated an HSF1A-biotin conjugate (HSF1A-B)) and assayed the ability of HSF1A-B to interact with Hsp90.

mouse model of ALS = details: Kieran et al., Nature Medicine 2004; cited from earlier work

Structure (SMILES): C=CCNC1=C2C[C@@H](C)C[C@H](OC)[C@H](O)[C@@H](C)/C=C(\C)[C@H](OC(N)=O)[C@@H](OC)/C=C\C=C(/C)C(=O)NC(=CC1=O)C2=O [17-AAG]
- competition with GD-B for Hsp90 binding (Hsp90; at 1 mM and 10 mM): able to compete

Structure (SMILES): CCc1ccc(S(=O)(=O)Nc2cc(-c3cccs3)nn2-c2ccccc2)cc1 [HSF1A]
- competition with GD-B for Hsp90 binding (Hsp90; concentrations 100-fold higher than GD-B): unable to compete

Structure (SMILES): [O-][n+]1cccc(/C(Cl)=N/OC[C@H](O)CN2CCCCC2)c1 [arimoclomal]
- disease progression (mouse model of ALS): significantly delays disease progression
